Assays:
[1] = tested on: balloon-injured carotid arteries; details: delivered pre- and post-operatively; effect relatively modest; cited from earlier work
ERK-1/2 activation = details: cited from earlier work
[2] = tested on: myeloperoxidase-positive (MPO) cells; details: graft immersed in UO126 (80 μM/L) prior to grafting; 24 hours and 4 days post-operatively
Method: (§1) Carotid artery bypass using reversed autologous external jugular vein (EJV) was performed on 29 purpose-bred mongrel dogs. Following skin incision, the EJV was exposed with a “no-touch” technique, and the side branches were clipped and divided. The dogs received heparin systemically (100 U/kg) and the ipsilateral common carotid artery was dissected free of the surrounding tissue. The EJV was ligated and excised. The lumen of the EJV was flushed with plasmalyte solution without distending the vein. A segment of the excised vein was removed and labeled (“control 1”). The EJV was reversed and grafted to the common carotid artery in an end-to-side fashion with 7-0 polypropylene suture, and the carotid artery was ligated and divided. See Saunders et al., J Thorac Cardiovasc Surg. 2004; 127:1276-1284.
(§2) Inflammation is a key component of a vessel's response to injury.
(§3) This experiment, which also used the canine model described in Example 1, investigated the levels of CRP and MPO cells in arterialized vein grafts immersed in a solution of UO126 (80 μM/L) (solubilized with DMSO and diluted in PBS) prior to grafting (i.e., pretreated grafts), arterialized vein grafts that were not pretreated, and contralateral ungrafted, un-pretreated external jugular veins.

C reactive protein (CRP) = details: graft immersed in UO126 (80 μM/L) prior to grafting; 24 hours post-operatively
Method: as §1, §2, §3

[3] = tested on: arterialized vein graft wall; details: EJV immersed 20 minutes in 80 μmoles/L UO126 before grafting; AVG harvested at 28 days; 1% cholesterol chow; DMSO controls 358.2+/−190.3; p=0.012
Method: The experimental procedure followed in the canine model described in Examples 1, 2, and 3 was applied to white New Zealand rabbits fed a 1% cholesterol chow. Prior to grafting, the excised autologous EJVs were fully immersed for 20 minutes at room temperature in about 5 ml of a solution containing 80 μmoles/L of UO126 (solubilized with DMSO and diluted in PBS) or vehicle (DMSO, 0.8%) alone in PBS. Each EJV was grafted to a carotid artery. Autologous femoral vein was excised but not treated or grafted. The veins were fixed in formaldehyde, and sections stained with hematoxylin/eosin were used for the following analysis.

medial cell apoptosis = details: EJV pretreated with 80 μM UO126; 1 day and 4 days post-anastomosis
Method: as §1
(§4) Each EJV was grafted to a carotid artery. Autologous femoral vein was excised but not treated or grafted.

ERK-1/2 = details: excised EJV immersed 20 minutes in 80 μmmoles/L UO126 before grafting; 3 hours post-grafting; relative to DMSO-pretreated EJVs
Method: as §1, §4

PCNA expression = details: EJV pretreated with 80 μM UO126; 24 hours and 4 days post-grafting; relative to DMSO-pretreated EJVs
Method: as §1, §4

Row | Compound | ERK activation [1] | medial cell proliferation [1] | potency as inhibitor of ERK-1/2 activation compared with PD098059 (ERK-1/2 activation) | levels of MPO cells associated with arterialized vein grafts [2] | upregulation of CRP in arterialized vein grafts (C reactive protein (CRP)) | vein wall thickness (intima+media) to luminal circumference ratio (mean value+/−SD) [3] | medial cell apoptosis (TUNEL) (medial cell apoptosis) | ERK-1/2 activation (ratio of phosphorylated to total ERK-1/2) (ERK-1/2) | PCNA expression (PCNA expression)
1 | COc1cccc(-c2cc(=O)c3ccccc3o2)c1N [PD98059, 2-(2′-amino-3′-methoxyphenyl) oxanaphthalen-4-one] | inhibit | inhibit |  |  |  |  |  |  | 
2 | N#CC(=C(N)Sc1ccccc1N)C(C#N)=C(N)Sc1ccccc1N [UO126, 1,4-diamino-2,3-dicyano-1,4-bis[2-aminophenylthio]butadiene] |  |  | more potent | significantly downregulated | does not affect | 288.8+/−109.5 | marked and sustained (up to 4 days) induction | significantly reduced | markedly decreased

— patent US8372421B2, “Inhibition of mitogen-activated protein kinases in cardiovascular disease” (New York University, priority 2004, dated 2013)
